Source: patent US20180305370A1 (ORPHOMED, INC., priority 2015, published 2018)
Where two headings read alike, the source gives them in different places.

Tests used:
[1] = In vivo pharmacokinetic study, IV and oral gavage
Description: The animal pharmacokinetic studies were conducted at Johns Hopkins Medical Institute using CD-1 mice (weighing about 35 gm, n=3 per time point). […] Blood collected at 0, 30 min and 1, 2, 6 and 24 hours post-dose. Blood samples for the drug were analyzed after harvesting the plasma and by LC/MS/MS as follows:
Extracts were centrifuged at 16000×g at 4° C. for 5 minutes. Supernatants (250 μL) were transferred to a new tube and dried under N2 at 45° C. for 1 hour. Samples were reconstituted with 100 μL of 30% acetonitrile, vortexed and centrifuged. Supernatants (90 μL) were transferred to LC vials and 10 μL was injected on LC/MS.

[2] = test system: formalin-induced hind paw licking; assay: Analgesia, formalin paw mouse study (hind paw licking time)
[3] = for stability over time: 28 months, room temperature
human liver microsomes = assay: Metabolic stability in human liver microsomes; details: 1 μM, human liver microsomes 1 mg protein/mL, up to 120 min, FIG. 1
[4] = cited from earlier work
ORL-1 = ORL-1 (Homo sapiens, UniProt P41146); details: cited from earlier work
ORL-1, sequence (P41146 whole entry, species assumed): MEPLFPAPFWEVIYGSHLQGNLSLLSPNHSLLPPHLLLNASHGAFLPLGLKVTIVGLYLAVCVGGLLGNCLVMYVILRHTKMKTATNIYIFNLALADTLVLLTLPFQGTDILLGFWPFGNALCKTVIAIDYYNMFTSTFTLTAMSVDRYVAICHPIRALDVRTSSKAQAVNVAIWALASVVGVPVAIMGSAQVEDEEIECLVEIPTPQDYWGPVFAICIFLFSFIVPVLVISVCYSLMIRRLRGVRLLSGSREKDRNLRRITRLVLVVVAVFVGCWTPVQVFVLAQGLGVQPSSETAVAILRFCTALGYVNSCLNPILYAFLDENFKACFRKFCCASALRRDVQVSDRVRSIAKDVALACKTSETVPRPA

[5] = in vivo; cited from earlier work

Molecule | absolute bioavailability (ratio of area under the concentration curve after oral and IV dose) ([1]; CD-1 mice, 10 mg/kg oral gavage vs IV, FIG. 6) | bioavailability, less than morphine ([1]; animal studies versus morphine) | analgesic effect ([2]; 5 mg/kg IP, mice, FIG. 9) | activity, less than morphine ([2]; animal studies versus morphine (Example 7)) | stability over time ([3]; listed as EGE conjugate) | stability over time ([3]; listed as compound of the invention) | HPLC Purity, September 2015 ([3]; hydrochloride salt, after 28 months at room temperature in clear glass vials) | HPLC Purity, May 2013 ([3]; hydrochloride salt, immediately after synthesis, stability baseline) | metabolism in presence of microsomal enzymes (human liver microsomes) | absolute bioavailability after an oral dose [4] | Activity (ORL-1) | analgesic potency compared with morphine [5]
2-[(2S)-2-[(5R,6R,7R,14S)-9α-cyclopropylmethyl-4,5-epoxy-6,14-ethano-3-hydroxy-6-methoxymorphinan-7-yl]-3,3-dimethylbutan-2-ol]-ethanol [EGE buprenorphine hydrochloride] | about 40% | about 40% | rapid analgesic effect | about 2.5% | unchanged over time | significantly more stable | 98.7% (AUC) | 98.6% (AUC) | rapid metabolism | – | – | –
CO[C@]12CC[C@@]3(C[C@@H]1[C@](C)(O)C(C)(C)C)[C@H]1Cc4ccc(O)c5c4[C@@]3(CCN1CC1CC1)[C@H]2O5 [Buprenorphine, buprenorphine] | – | – | – | – | – | – | – | – | – | less than 10% | Agonist | about thirty times more potent
